Laboratory results from article PMC12860872, “Preclinical evaluation of DOTAGA.Glu.(FAPI)2 and DO3A.Glu.(FAPI)2 as theranostics with human dosimetry extrapolation to lutetium-177 and terbium-161 analogs” (European Journal of Nuclear Medicine and Molecular Imaging, 2025).
Where “and” joins values, the source holds several entries; their conditions need not be identical. Equal values may be shown once.

Columns and labels:
[1] = test system: PC3-mice; assay: Biodistribution in PC3-mice incl. blocking; assay type: in vivo, mouse; conditions: PC3-mice
Description: Male athymic Balb/C nude mice (6 weeks/20–25 g) were implanted with PC3 cells (3.5 × 10^6/100 µL PBS) into their right shoulder to develop tumors. The animals were used for biodistribution and PET/SPECT/CT imaging studies, once tumors reached 250–300 mm^3.
All mice were euthanized with intraperitoneal injection of pentobarbital (150 mg/kg), and selected organs were dissected, weighed, and measured for radioactivity using a gamma-counter. Results are expressed as % injected activity per gram tissue (% I.A./g), presented as mean ± SD (n = 3–4).

[2] = Blood clearance kinetics in healthy mice; assay type: in vivo, mouse; conditions: i.v., Two-Phase Decay Model
Description: Blood samples were collected from the facial vein at 1, 3, 5, 7, 10, 15, 20, 30, 45, 60, 240, and 1440 min p.i., weighed, and measured for radioactivity using a γ-counter. Results were expressed as % I.A./g of blood and plotted over time. The initial and terminal half-lives were determined using Two-Phase Decay Model. The biological half-lives of selected organs were calculated from the biodistribution data using One-Phase Decay Model (GraphPad Prism 8).

[3] = Blocking 4h (20 nmol unlabeled precursor)

- Uptake in Adrenal ([1]; 4 h p.i.): 3±0.2 %I.A./g
- Uptake in Blood ([1]; 4 h p.i.): 2.1±0.1 %I.A./g
- Uptake in Bone ([1]; 4 h p.i.): 4±0.3 %I.A./g
- Uptake in Gallbladder ([1]; 4 h p.i.): 2.7±1.6 %I.A./g
- Uptake in Heart ([1]; 4 h p.i.): 0.9±0.1 %I.A./g
- Uptake in Intestine ([1]; 4 h p.i.): 0.8±0.3 %I.A./g
- Uptake in Kidney ([1]; 4 h p.i.): 2.6±0.4 %I.A./g
- Uptake in Liver ([1]; 4 h p.i.): 1.7±0.2 %I.A./g
- Uptake in Lung ([1]; 4 h p.i.): 1.1±0.1 %I.A./g
- Uptake in Muscle ([1]; 4 h p.i.): 1.4±0.3 %I.A./g
- Uptake in Pancreas ([1]; 4 h p.i.): 1.9±0.1 %I.A./g
- Uptake in Salivary glands ([1]; 4 h p.i.): 6.2±1.2 %I.A./g
- Uptake in Spleen ([1]; 4 h p.i.): 0.9±0.1 %I.A./g
- Uptake in Stomach ([1]; 4 h p.i.): 0.8±0.1 %I.A./g
- Uptake in Tumor ([1]; 4 h p.i.): 16.2±2.5 %I.A./g
- Uptake in Adrenal ([1]; 24 h p.i.): 1.9±0.2 %I.A./g
- Uptake in Blood ([1]; 24 h p.i.): 0.9±0.2 %I.A./g
- Uptake in Bone ([1]; 24 h p.i.): 2.5±0.1 %I.A./g
- Uptake in Gallbladder ([1]; 24 h p.i.): 0.4±0.1 %I.A./g
- Uptake in Heart ([1]; 24 h p.i.): 0.6±0.1 %I.A./g
- Uptake in Intestine ([1]; 24 h p.i.): 0.4±0.1 %I.A./g
- Uptake in Kidney ([1]; 24 h p.i.): 1.3±0.2 %I.A./g
- Uptake in Liver ([1]; 24 h p.i.): 2.1±0.2 %I.A./g
- Uptake in Lung ([1]; 24 h p.i.): 0.6±0.2 %I.A./g
- Uptake in Muscle ([1]; 24 h p.i.): 0.8±0.1 %I.A./g
- Uptake in Pancreas ([1]; 24 h p.i.): 0.9±0.7 %I.A./g
- Uptake in Salivary glands ([1]; 24 h p.i.): 2.9±0.5 %I.A./g
- Uptake in Spleen ([1]; 24 h p.i.): 0.7±0.2 %I.A./g
- Uptake in Stomach ([1]; 24 h p.i.): 0.4±0.1 %I.A./g
- Uptake in Tumor ([1]; 24 h p.i.): 7.3±0.6 %I.A./g
- Uptake in Adrenal ([1]; 48 h p.i.): 1.3±0.3 %I.A./g
- Uptake in Blood ([1]; 48 h p.i.): 0.2±0.03 %I.A./g
- Uptake in Bone ([1]; 48 h p.i.): 1.3±0.1 %I.A./g
- Uptake in Gallbladder ([1]; 48 h p.i.): 0.1±0.1 %I.A./g
- Uptake in Heart ([1]; 48 h p.i.): 0.4±0.04 %I.A./g
- Uptake in Intestine ([1]; 48 h p.i.): 0.2±0.01 %I.A./g
- Uptake in Kidney ([1]; 48 h p.i.): 1±0.2 %I.A./g
- Uptake in Liver ([1]; 48 h p.i.): 1.9±0.5 %I.A./g
- Uptake in Lung ([1]; 48 h p.i.): 0.3±0.1 %I.A./g
- Uptake in Muscle ([1]; 48 h p.i.): 0.5±0.1 %I.A./g
- Uptake in Pancreas ([1]; 48 h p.i.): 0.6±0.1 %I.A./g
- Uptake in Salivary glands ([1]; 48 h p.i.): 2.2±0.3 %I.A./g
- Uptake in Spleen ([1]; 48 h p.i.): 0.5±0.04 %I.A./g
- Uptake in Stomach ([1]; 48 h p.i.): 0.3±0.03 %I.A./g
- Uptake in Tumor ([1]; 48 h p.i.): 5.1 ± 0.1 %I.A./g
- Uptake in Adrenal ([1]; 72 h p.i.): 0.9±0.02 %I.A./g
- Uptake in Blood ([1]; 72 h p.i.): 0.1±0.03 %I.A./g
- Uptake in Bone ([1]; 72 h p.i.): 0.9±0.2 %I.A./g
- Uptake in Gallbladder ([1]; 72 h p.i.): 0.1±0.1 %I.A./g
- Uptake in Heart ([1]; 72 h p.i.): 0.3±0.1 %I.A./g
- Uptake in Intestine ([1]; 72 h p.i.): 0.1±0.02 %I.A./g
- Uptake in Kidney ([1]; 72 h p.i.): 0.6±0.1 %I.A./g
- Uptake in Liver ([1]; 72 h p.i.): 1.4±0.4 %I.A./g
- Uptake in Lung ([1]; 72 h p.i.): 0.1±0.02 %I.A./g
- Uptake in Muscle ([1]; 72 h p.i.): 0.2±0.02 %I.A./g
- Uptake in Pancreas ([1]; 72 h p.i.): 0.4±0.03 %I.A./g
- Uptake in Salivary glands ([1]; 72 h p.i.): 0.7±0.04 %I.A./g
- Uptake in Spleen ([1]; 72 h p.i.): 0.3±0.1 %I.A./g
- Uptake in Stomach ([1]; 72 h p.i.): 0.1±0.02 %I.A./g
- Uptake in Tumor ([1]; 72 h p.i.): 3.2±0.3 %I.A./g
- Uptake in Adrenal ([1]; 96 h p.i.): 0.5±0.01 %I.A./g
- Uptake in Blood ([1]; 96 h p.i.): 0.03±0 %I.A./g
- Uptake in Bone ([1]; 96 h p.i.): 0.6±0.1 %I.A./g
- Uptake in Gallbladder ([1]; 96 h p.i.): 0.1±0.02 %I.A./g
- Uptake in Heart ([1]; 96 h p.i.): 0.2±0.02 %I.A./g
- Uptake in Intestine ([1]; 96 h p.i.): 0.1±0.02 %I.A./g
- Uptake in Kidney ([1]; 96 h p.i.): 0.4±0.04 %I.A./g
- Uptake in Liver ([1]; 96 h p.i.): 1.3±0.1 %I.A./g
- Uptake in Lung ([1]; 96 h p.i.): 0.1±0.02 %I.A./g
- Uptake in Muscle ([1]; 96 h p.i.): 0.1±0.1 %I.A./g
- Uptake in Pancreas ([1]; 96 h p.i.): 0.2±0.02 %I.A./g
- Uptake in Salivary glands ([1]; 96 h p.i.): 0.7±0.1 %I.A./g
- Uptake in Spleen ([1]; 96 h p.i.): 0.3±0.03 %I.A./g
- Uptake in Stomach ([1]; 96 h p.i.): 0.1±0.01 %I.A./g
- Uptake in Tumor ([1]; 96 h p.i.): 2.2±0.2 %I.A./g
- Uptake in Adrenal [1, 3]: 0.8±0.5 %I.A./g
- Uptake in Blood [1, 3]: 0.03±0.01 %I.A./g
- Uptake in Bone [1, 3]: 0.7±0.1 %I.A./g
- Uptake in Gallbladder [1, 3]: 0.2±0.2 %I.A./g
- Uptake in Heart [1, 3]: 0.2±0.04 %I.A./g
- Uptake in Intestine [1, 3]: 0.1±0.02 %I.A./g
- Uptake in Kidney [1, 3]: 0.5±0.1 %I.A./g
- Uptake in Liver [1, 3]: 1.2±0.5 %I.A./g
- Uptake in Lung [1, 3]: 0.1±0.04 %I.A./g
- Uptake in Muscle [1, 3]: 0.2±0.04 %I.A./g
- Uptake in Pancreas [1, 3]: 0.2±0.2 %I.A./g
- Uptake in Salivary glands [1, 3]: 0.6±0.2 %I.A./g
- Uptake in Spleen [1, 3]: 0.3±0.1 %I.A./g
- Uptake in Stomach [1, 3]: 0.09±0.02 %I.A./g
- Uptake in Tumor [1, 3]: 2.9±1.8 %I.A./g
- tumor uptake ([1]; at 1 h p.i. as printed): ~ 15 %I.A./g
- drop of tumor uptake (washed-out) ([1]; at 24 h vs 4 h p.i.): ~ 50%
- Blood half life (initial) [2]: 2.8 min
- Blood half life (terminal) [2]: 4.692 h and 4.7 h
SMILES: N#C[C@@H]1CC(F)(F)CN1C(=O)CNC(=O)c1ccnc2ccc(OCCCCNC(=O)CC[C@H](NC(=O)CCC(C(=O)O)N3CCN(CC(=O)[O-])CCN(CC(=O)[O-])CCN(CC(=O)[O-])CC3)C(=O)NCCCCOc3ccc4nccc(C(=O)NCC(=O)N5CC(F)(F)C[C@H]5C#N)c4c3)cc12.[177Lu+3] (stereo partly shown) [[^177Lu]Lu-DOTAGA.Glu.(FAPI)2]
